# Results reported in US10953209B2, “Treating tumors using TTFields combined with a PARP inhibitor” (Board of Regents of the University of Texas System, priority 2018, dated 2021).
# Experiments:
# Assay type in all cases: cell-based, Human
# H1299 cell line [1] = experiment: Clonogenic survival, triple combination of TTFields, IR and Olaparib (CI); conditions: Olaparib 20 μM; for CI TTFields + Olap + 1 Gy: 1 Gy IR; for CI TTFields + Olap + 2 Gy: 2 Gy IR; for CI TTFields + Olap: no IR
# Description: (§1) Experiments similar to those discussed above in connection with Table 2 and FIG. 6 were also conducted for H1299 and H157 cell lines, both with and without the PARP inhibitor Olaparib. More specifically, Olaparib (at a concentration of 20 μM) was added to cells, the cells were immediately exposed to TTFields for 24, […], or 72 h, removed, irradiated (at different doses of radiation), and immediately plated for survival.
# (§2) The combination effect was evaluated using the Highest Single Agent approach and are listed in Table 4 and depicted in FIGS. 9A and 9B, which summarize the clonogenic assays for the different combinations of RT dosage and TTFields exposure time in the table, both with and without the Olaparib.
# (§3) The inventors considered the combined effect of TTFields and Olaparib to be synergistic if the combination index (CI) was >1 and the P-value was <0.05 for a given time point and a given cell line.
# (§4) Human NSCLC cell lines (H157, H4006, A549, H1299 and H1650) were purchased from American Tissue Culture Collection. All these cell lines were grown in RPMI medium supplemented with 10% (v/v) fetal bovine serum (Atlanta Biologicals, Flowery Branch, Ga., USA) and penicillin/[…] (final concentration 50 μg/ml; Sigma-Aldrich, St. Louis, Mo., U29SA). All cells were grown at 37° C. in a humidified incubator constantly supplied with 5% CO2.
# (§5) The inventors used the inovitro system (NovoCure Ltd, Haifa, Israel) to generate TTFields that use two pairs of electrodes printed perpendicularly on the outer walls of a Petri dish composed of high dielectric constant ceramic (lead magnesium niobate-lead titanite (PMN-PT)). The transducer arrays were connected to a sinusoidal waveform generator that generate low-intensity electric fields at the desired frequencies in the medium as summarized in Table 1 above. The orientation of the TTFields was switched 90° every 1 s, thus covering the majority of the orientation axis of cell divisions, as previously described by Kirson et al. Plate temperature was maintained at 37° C. by placing the plates in a refrigerated incubator where the temperature was maintained at 19° C. to dissipate the heat generated by the inovitro system. The temperature was measured by 2 thermistors (Omega Engineering, Stamford, Conn., USA) attached to the ceramic walls. All cell suspensions were grown on a cover slip inside the inovitro dish (NovoCure Ltd) and treated with TTFields for the times indicated in the figure legends.
# (§6) To study the effect of radiation sensitivity on NSCLC cells, exponentially growing cells were treated with IR using a Mark II Cs irradiator (J L Shepherd and Associates) at a dose rate of 3.47 Gy/min, followed by immediate application of TTFields for 24, 48 and 72 h. Cells were then re-seeded into 60 mm dishes and incubated for up to 2 weeks. Colonies containing 50 or more cells were considered viable. The data are presented as the mean±S.E.M. of three independent experiments. The radiosensitization effect of TTFields was evaluated according to The Highest Single Agent approach by calculating the CI as given below. CI=SFIR×SFTTFields)/SFIR+TTFields Where SF=Survivalfraction
# (§7) For the Triple Combination of TTFields, IR, and Olaparib, CI was calculated using the following equations: CI(TTFields+olap)=(SFOlap×SFTTFields)/SFOlap+TTFields CI(TTFields+1Gy)=(SF1Gy×SFTTFields)/SF1Gy+TTFields CI(TTFields+2Gy)=(SF2Gy×SFTTFields)/SF2Gy+TTFields CI(TTFields+olap+1Gy)=(SF1Gy+Olap×SFTTFields)/SFOlap+TTFields+1Gy CI(TTFields+olap+2Gy)=(SF2Gy+Olap×SFTTFields)/SFOlap+TTFields+2Gy Where SF=Survival fraction
# H157 cell line = experiment: as above; conditions: Olaparib 20 μM; for CI TTFields + Olap + 1 Gy: 1 Gy IR; for CI TTFields + Olap + 2 Gy: 2 Gy IR; for CI TTFields + Olap: no IR
# Description: as §1, §2, §3, §4, §5, §6, §7
# H1299 cell line [2] = experiment: as above; conditions: TTFields 48 h, Olaparib 20 μM
# H157 NSCLC cell line = experiment: Clonogenic survival, TTFields + Olaparib combination (Highest Single Agent CI); conditions: for CI TTFields + Olap 10 μM: Olaparib 10 μM; for CI TTFields + Olap 10 μM / CI TTFields + Olap 20 μM / CI TTFields + Olap 40 μM: CI>1 = synergistic; for CI TTFields + Olap 20 μM: Olaparib 20 μM; for CI TTFields + Olap 40 μM: Olaparib 40 μM
# Description: (§8) Experiments similar to those discussed above in connection with Table 2 and FIG. 6 were also conducted, but with exposure to IR replaced with exposure to three different concentrations (either 10, 20, and 40 μM; or 12.5, 25, and 50 μM, depending on the cell line) of the PARP inhibitor Olaparib. More specifically, Olaparib at each of the different concentrations was added to cells and the cells were then exposed to TTFields for 30 or 60 h (or not exposed to TTFields for the control) and immediately plated for survival. Baseline growth curves for exposing the various NSCLC cell lines to different concentrations of Olaparib without TTFields are depicted in FIG. 7. Clonogenic assays are depicted in FIG. 8 for the different combinations of drug concentration and TTFields exposure time in Table 3.
# as §3, §4, §5, §6
# (§9) The combination effect was considered enhanced/synergistic when CI>1, additive when CI=1. Statistical significance for a positive effect was determined by the P-value of a two-way ANOVA multiple comparison statistical test comparing the combination (TTFields plus IR) to the single agent showing the greatest cell killing for a given dose and time after IR.
# H1299 NSCLC cell line = experiment: as above; conditions: for CI TTFields + Olap 10 μM: Olaparib 10 μM; for CI TTFields + Olap 10 μM / CI TTFields + Olap 20 μM / CI TTFields + Olap 40 μM: CI>1 = synergistic; for CI TTFields + Olap 20 μM: Olaparib 20 μM; for CI TTFields + Olap 40 μM: Olaparib 40 μM
# Description: as §8, §3, §4, §5, §6, §9
# H4006 NSCLC cell line = experiment: as above; conditions: for CI TTFields + Olap 12.5 μM: Olaparib 12.5 μM; for CI TTFields + Olap 12.5 μM / CI TTFields + Olap 25 μM / CI TTFields + Olap 50 μM: CI>1 = synergistic; for CI TTFields + Olap 25 μM: Olaparib 25 μM; for CI TTFields + Olap 50 μM: Olaparib 50 μM
# Description: as §8, §3, §4, §5, §6, §9
# A549 NSCLC cell line = experiment: as above; conditions: for CI TTFields + Olap 12.5 μM: Olaparib 12.5 μM; for CI TTFields + Olap 12.5 μM / CI TTFields + Olap 25 μM / CI TTFields + Olap 50 μM: CI>1 = synergistic; for CI TTFields + Olap 25 μM: Olaparib 25 μM; for CI TTFields + Olap 50 μM: Olaparib 50 μM
# Description: as §8, §3, §4, §5, §6, §9
# [3] = synergistic if CI >1 and P <0.05
# [4] = all tested concentrations, synergistic if CI >1 and P <0.05
smiles,measurement,setting,value
O=C(c1cc(Cc2n[nH]c(=O)c3ccccc23)ccc1F)N1CCN(C(=O)C2CC2)CC1 [Olaparib],"combined effect of TTFields, IR, and Olaparib on cell death",H1299 cell line [1]; [3],synergistic
same,CI TTFields + Olap + 1 Gy,H1299 cell line [1]; TTFields 24 h,1.64
same,CI TTFields + Olap + 2 Gy,H1299 cell line [1]; TTFields 24 h,1.96
same,CI TTFields + Olap,H1299 cell line [1]; TTFields 24 h,1.03
same,CI TTFields + Olap + 1 Gy,H1299 cell line [1]; TTFields 72 h,1.89
same,CI TTFields + Olap + 2 Gy,H1299 cell line [1]; TTFields 72 h,3.08
same,CI TTFields + Olap,H1299 cell line [1]; TTFields 72 h,1.06
same,"combined effect of TTFields, IR, and Olaparib on cell death",H157 cell line; [3],synergistic
same,CI TTFields + Olap + 1 Gy,H157 cell line; TTFields 24 h,2.25
same,CI TTFields + Olap + 2 Gy,H157 cell line; TTFields 24 h,2.36
same,CI TTFields + Olap,H157 cell line; TTFields 24 h,0.97
same,CI TTFields + Olap + 1 Gy,H157 cell line; TTFields 48 h,2.12
same,CI TTFields + Olap + 2 Gy,H157 cell line; TTFields 48 h,2.07
same,CI TTFields + Olap,H157 cell line; TTFields 48 h,1.02
same,CI TTFields + Olap + 1 Gy,H157 cell line; TTFields 72 h,1.66
same,CI TTFields + Olap + 2 Gy,H157 cell line; TTFields 72 h,2.57
same,CI TTFields + Olap,H157 cell line; TTFields 72 h,1.49
same,CI TTFields + Olap + 1 Gy,H1299 cell line [2]; 1 Gy IR,1.70
same,CI TTFields + Olap + 2 Gy,H1299 cell line [2]; 2 Gy IR,2.20
same,CI TTFields + Olap,H1299 cell line [2]; no IR,1.02
same,CI TTFields + Olap 10 μM,H157 NSCLC cell line; TTFields 30 h,1.3
same,CI TTFields + Olap 20 μM,H157 NSCLC cell line; TTFields 30 h,1.44
same,CI TTFields + Olap 40 μM,H157 NSCLC cell line; TTFields 30 h,1.78
same,CI TTFields + Olap 10 μM,H157 NSCLC cell line; TTFields 60 h,1.63
same,CI TTFields + Olap 20 μM,H157 NSCLC cell line; TTFields 60 h,1.43
same,CI TTFields + Olap 40 μM,H157 NSCLC cell line; TTFields 60 h,1.68
same,combined effect of TTFields and Olaparib on cell death,H157 NSCLC cell line; [4],synergistic
same,CI TTFields + Olap 10 μM,H1299 NSCLC cell line; TTFields 30 h,1.12
same,CI TTFields + Olap 20 μM,H1299 NSCLC cell line; TTFields 30 h,1.42
same,CI TTFields + Olap 40 μM,H1299 NSCLC cell line; TTFields 30 h,1.9
same,CI TTFields + Olap 10 μM,H1299 NSCLC cell line; TTFields 60 h,1.4
same,CI TTFields + Olap 20 μM,H1299 NSCLC cell line; TTFields 60 h,1.5
same,CI TTFields + Olap 40 μM,H1299 NSCLC cell line; TTFields 60 h,3.7
same,combined effect of TTFields and Olaparib on cell death,H1299 NSCLC cell line; [4],synergistic
same,CI TTFields + Olap 12.5 μM,H4006 NSCLC cell line; TTFields 30 h,1.17
same,CI TTFields + Olap 25 μM,H4006 NSCLC cell line; TTFields 30 h,1.17
same,CI TTFields + Olap 50 μM,H4006 NSCLC cell line; TTFields 30 h,1.32
same,CI TTFields + Olap 12.5 μM,H4006 NSCLC cell line; TTFields 60 h,1.13
same,CI TTFields + Olap 25 μM,H4006 NSCLC cell line; TTFields 60 h,1.34
same,CI TTFields + Olap 50 μM,H4006 NSCLC cell line; TTFields 60 h,1.96
same,combined effect of TTFields and Olaparib on cell death,H4006 NSCLC cell line; [4],synergistic
same,CI TTFields + Olap 12.5 μM,A549 NSCLC cell line; TTFields 30 h,1.12
same,CI TTFields + Olap 25 μM,A549 NSCLC cell line; TTFields 30 h,1.46
same,CI TTFields + Olap 50 μM,A549 NSCLC cell line; TTFields 30 h,1.32
same,CI TTFields + Olap 12.5 μM,A549 NSCLC cell line; TTFields 60 h,1.39
same,CI TTFields + Olap 25 μM,A549 NSCLC cell line; TTFields 60 h,1.716
same,CI TTFields + Olap 50 μM,A549 NSCLC cell line; TTFields 60 h,1.53
same,combined effect of TTFields and Olaparib on cell death,A549 NSCLC cell line; [4],synergistic
